# Measured values reported in patent US20240141440A1, “METHODS FOR DETECTING ONCOGENIC KRAS MUTATIONS” (Duke University, priority 2022, published 2024).
# Assays:
# Type in all cases: in vivo, A/J mice
# Kras Q61L = test: Droplet digital PCR of Kras Q61L in lungs of mice after urethane exposure; details: 4 weeks post urethane exposure
# Description: (§1) Urethane treatment. 6-8-week-old male and female A/J mice (JAX Stock #000646) were intraperitoneally injected daily for three days with either urethane (Sigma U2500) dissolved in PBS (1 g·kg^−1) or the vehicle PBS alone. Mice were humanely euthanized 1, 2, 3, or 4 weeks after the last injection and the lung, liver, and pancreas collected for the extraction of genomic DNA. All mouse care and experiments were performed in accordance with protocols approved by the IACUC of Duke University.
# Droplet digital PCR (ddPCR). ddPCR was performed using the QX200 AutoDG Droplet Digital PCR System (Bio-Rad) following the manufacturer's protocol in a 22 μl ddPCR reaction containing 11 μl of 2×ddPCR SuperMix for probes (no dUTP) (Bio-Rad), 66 ng template DNA, 450 nM forward and reverse primers, and 250 nM FAM- and HEX-labelled probes. The primer and probe oligonucleotides were synthesized (IDT) based on sequences previously described^76 with minor modifications. The sequences for the primers are: Kras_Q61_For: 5′-[…]-3′ (SEQ ID NO: 205); and Kras_Q61_Rev: 5′-[…]-3′ (SEQ ID NO: 206). […] Plates were read on a QX200 droplet reader (Bio-Rad) and analyzed with QuantaSoft™ Analysis Pro software (version 1.0.596) (Bio-Rad) to assess the number of droplets positive for mutant DNA, wild-type DNA, both, or neither. […]
# exon 2 of Hras = test: MDS of Hras exon 2 from lungs of mice after urethane exposure
# Description: as §1
# (§2) Isolation of genomic DNA. MEF cells were resuspended in lysis buffer (100 mM NaCl, 10 mM Tris pH 7.6, 25 mM EDTA pH 8.0, and 0.5% SDS in H2O, supplemented with 20 μg·ml^−1 RNase A (Sigma)). Lung, pancreas, and liver (right lobe) from A/J mice (JAX Stock #000646) were cut into fine pieces and similarly resuspended in lysis buffer. Samples were incubated at 37° C. for 1 hour. 2 μl of 800 U·ml^−1 proteinase K (NEB) was then added to each sample, the samples were vortexed, and then incubated at 55° C. overnight. Genomic DNA was isolated by phenol/chloroform extraction followed by ethanol precipitation using standard procedures and quantified using Qubit fluorometer.
# (§3) Maximum depth sequencing (MDS). The MDS assay^13 was adapted for mammalian Ras genes as follows. […] The concentration of purified product was measured with SimpliNano spectrophotometer (GE Healthcare Life Sciences). […]
# exon 2 of Kras = test: Maximum depth sequencing (MDS) of Kras exon 2 from tissues of mice after urethane exposure
# Description: as §1, §2
# Maximum depth sequencing (MDS). The MDS assay^13 was adapted for mammalian Ras genes as follows. 20-50 μg of genomic DNA was incubated with StuI (NEB) for analysis of the transcribed strand of Kras exon 1, EcoRV (NEB) and EcoRI (NEB) for analysis of the non-transcribed strand of Kras exon 1, XmnI (NEB) for analysis of the non-transcribed strand of Kras exon 2, and PleI (NEB) for analysis of the transcribed strand of Kras exon 2, or HphI (NEB) for the analysis of the non-transcribed strand of Hras exon 2. Reaction conditions were 5 units of the indicated restriction enzyme and per 1 μg DNA per 20 μl reaction (e.g., 20 μg genomic DNA, 5 μl enzyme (20 units/μl), and 40 μl 10×buffer in 400 μl reaction). Digested genomic DNA was column purified using QIAquick PCR Purification Kit following the manufacturer's protocol (Qiagen) and resuspended in ddH2O (35 μl H2O per 10 μg DNA). The barcode and adaptor were added to the target DNA by incubating purified DNA with the appropriate barcode primer (see below) for one cycle of PCR. PCR reactions were comprised of 10 μg DNA, 2.5 μl of 10 μM barcode primer, 4 μl of 2.5 mM dNTP, 10 μl of 5×buffer (NEB), and 0.5 μl Q5® Hot Start High-Fidelity DNA Polymerase (NEB) in a total volume of 50 μl. The number of PCR reactions was scaled according to the amount of DNA. PCR conditions were 98° C. for 1 minute, barcode primer annealing temperate (see below) for 15 seconds, and 72° C. for 1 minute. […] The concentration of purified product was measured with SimpliNano spectrophotometer (GE Healthcare Life Sciences). […]
# exon 1 of Kras = test: MDS of Kras exon 1 from lungs of mice after urethane exposure
# Description: as §1, §2, §3
compound,measurement,setting,value
"CCOC(N)=O [urethane, ethyl carbamate]",Q61L mutation frequency by droplet digital PCR,Kras Q61L,frequency similar to that determined by MDS
same,expansion of oncogenic mutations in Hras over time,exon 2 of Hras; 4 weeks vs 1 week,did not expand appreciably over time
same,mutations in exon 2 of Hras,"exon 2 of Hras; non-transcribed strand, 1 and 4 weeks after exposure",high prevalence of A>T followed by A>G mutations
same,strand bias of mutagenesis,"exon 2 of Kras; lung, both strands sequenced in two exons of Kras",bias for the non-transcribed strand
same,most prominent substitution detected by MDS,"exon 2 of Kras; lungs, Kras exon 2, all time points, urethane but not PBS",A>T transversion within the context of a 5′ C and 3′ any nucleotide
same,oncogenic mutation at codon Q61 of Kras detected by MDS,"exon 2 of Kras; lungs, non-transcribed strand of exon 2, 1-4 weeks after three daily i.p. injections, vs PBS","oncogenic L (and to a lesser extent R) mutation at codon Q61 preferentially in the urethane, but not PBS cohort of mice, as early as 1 week after exposure"
same,CAN→CTN transversions in liver and pancreas in comparison with the lung,"exon 2 of Kras; non-transcribed strand of exon 2 of Kras, 1 and 4 weeks after urethane exposure",significantly fewer CAN→CTN transversions were recovered in the liver and pancreas
same,oncogenic mutations in codon 12 or 13 of Kras,exon 1 of Kras; 1 week after urethane exposure,oncogenic mutations were rarely recovered in either codon 12 or 13
same,oncogenic mutations in codon 12 or 13 of Kras,exon 1 of Kras; 4 weeks after urethane exposure,some G12 and G13 mutations were detected at a low frequency
